IC50, Ki and inhibition data for six compounds are collected here from ChEMBL document CHEMBL4376805, “Plasmodium Purine Metabolism and Its Inhibition by Nucleoside and Nucleotide Analogues” (J Med Chem, 2019).

The structures appear in SMILES notation.

Assay [1] deals with Plasmodium falciparum. Nature of the assay: Antimalarial activity against synchronized Plasmodium falciparum ring stage form assessed as reduction in [2,8-3H]Hypoxanthine incorporation incubated for 48 hrs followed by addition of [2,8-3H]Hypoxanthine and measured after 24 hrs by liquid scintillation counting method. Format: functional, organism-based.
Assay [2] addresses GMP synthase [glutamine-hydrolyzing] (Homo sapiens, UniProt P49915).
Description: Inhibition of human GMP synthase
The target of assay [3] is T1, Purine nucleoside phosphorylase (Homo sapiens, UniProt P00491).
T1 sequence (P00491 whole entry): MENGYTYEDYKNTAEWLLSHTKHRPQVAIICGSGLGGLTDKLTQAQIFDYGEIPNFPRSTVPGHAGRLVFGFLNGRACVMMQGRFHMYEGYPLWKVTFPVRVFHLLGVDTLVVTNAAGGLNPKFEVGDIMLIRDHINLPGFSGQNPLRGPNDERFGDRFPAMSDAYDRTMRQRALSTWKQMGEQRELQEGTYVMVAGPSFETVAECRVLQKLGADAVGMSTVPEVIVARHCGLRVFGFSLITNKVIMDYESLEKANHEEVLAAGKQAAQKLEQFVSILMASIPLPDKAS
Nature of the assay: Inhibition of human PNP expressed in Escherichia coli assessed as reduction in uric acid formation by spectrophotometric method.

Assay [4] deals with Plasmodium falciparum. Nature of the assay: microbe, parasite or virus in culture. To be noted: 3D7.
Description: Antimalarial activity against Plasmodium falciparum 3D7 infected in human erythrocytes assessed as reduction in [3H]ethanolamine incorporation incubated for 18 hrs followed by addition of [3H]ethanolamine and measured after 48 hrs by scintillation counting method
The nature of assay [5]: Inhibition of Plasmodium falciparum HGXPRT expressed in Escherichia coli BL21 (DE3) assessed as inhibitor constant for enzyme-inhibitor-substrate complex formation using [5'-14C]IMP as substrate by scintillation counting method.
In assay [6] the target is T2, Hypoxanthine-guanine phosphoribosyltransferase (Homo sapiens, UniProt P00492).
T2 sequence (P00492 whole entry): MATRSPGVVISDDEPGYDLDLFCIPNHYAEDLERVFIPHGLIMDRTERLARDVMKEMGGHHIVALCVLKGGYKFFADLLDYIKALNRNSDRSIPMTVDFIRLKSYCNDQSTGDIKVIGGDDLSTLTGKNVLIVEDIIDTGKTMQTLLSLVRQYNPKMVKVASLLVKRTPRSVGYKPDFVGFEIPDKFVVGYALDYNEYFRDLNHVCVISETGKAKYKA
Nature of the assay: Inhibition of human HGPRT assessed as inhibitor constant for enzyme-inhibitor complex formation using [5'-14C]IMP as substrate by scintillation counting method.

Assay [7] has as its target T3, Purine nucleoside phosphorylase (Plasmodium falciparum, UniProt Q8T9Z7).
T3 sequence (Q8T9Z7 whole entry): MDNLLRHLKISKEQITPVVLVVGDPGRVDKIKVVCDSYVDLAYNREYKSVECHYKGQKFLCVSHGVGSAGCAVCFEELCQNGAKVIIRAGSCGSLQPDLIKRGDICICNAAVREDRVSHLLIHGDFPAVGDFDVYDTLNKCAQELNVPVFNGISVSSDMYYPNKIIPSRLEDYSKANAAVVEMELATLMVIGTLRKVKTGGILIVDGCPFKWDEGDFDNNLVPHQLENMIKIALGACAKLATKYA
Description: Inhibition of Plasmodium falciparum His-tagged PNP assessed as inhibitor constant for enzyme-inhibitor complex formation

For assay [8], the target named is T3, Purine nucleoside phosphorylase. The source holds these as a separate data set.
Description: Inhibition of Plasmodium falciparum His-tagged PNP assessed as inhibitor constant for enzyme-inhibitor-substrate complex formation
Assay [9] addresses T1, Purine nucleoside phosphorylase.
Description: Inhibition of human PNP assessed as inhibitor constant for enzyme-inhibitor complex formation
The target is the same in assay [10]. This is another data set of the same source.
Description: Inhibition of human PNP assessed as inhibitor constant for enzyme-inhibitor-substrate complex formation
The target of assay [11] is T4, GMP synthase [glutamine-hydrolyzing] (Plasmodium falciparum) (UniProt Q8IJR9).
T4 sequence (whole entry): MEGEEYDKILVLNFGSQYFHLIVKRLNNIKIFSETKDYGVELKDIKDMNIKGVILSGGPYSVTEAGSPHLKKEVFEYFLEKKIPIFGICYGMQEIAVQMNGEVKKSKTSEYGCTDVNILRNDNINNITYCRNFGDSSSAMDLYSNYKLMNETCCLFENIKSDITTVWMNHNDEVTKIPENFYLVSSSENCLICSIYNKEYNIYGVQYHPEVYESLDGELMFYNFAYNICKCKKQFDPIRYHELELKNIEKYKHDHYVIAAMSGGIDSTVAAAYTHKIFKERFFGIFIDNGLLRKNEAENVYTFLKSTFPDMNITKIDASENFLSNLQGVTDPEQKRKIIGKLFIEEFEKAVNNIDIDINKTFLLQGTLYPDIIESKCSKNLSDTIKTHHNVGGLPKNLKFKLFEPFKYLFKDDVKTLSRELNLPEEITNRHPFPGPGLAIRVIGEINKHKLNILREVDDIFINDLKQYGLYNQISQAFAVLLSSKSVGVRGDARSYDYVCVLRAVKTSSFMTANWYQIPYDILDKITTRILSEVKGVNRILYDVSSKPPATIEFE
Description: Inhibition of Plasmodium falciparum N-terminal His-tagged GMP synthase expressed in Escherichia coli AT2465 assessed as reduction in NADH formation incubated at 0.5 mM for 20 mins by spectrophotometric analysis relative to control.

The subject of assay [12] is Plasmodium falciparum. Description: Antimalarial activity against Plasmodium falciparum 3D7 assessed as reduction in parasite growth incubated for 48 hrs by Giemsa-staining counting based microscopic analysis. Format: functional, organism-based. To be noted: 3D7, 48 h.

Sequence of GMP synthase [glutamine-hydrolyzing] (P49915 whole entry): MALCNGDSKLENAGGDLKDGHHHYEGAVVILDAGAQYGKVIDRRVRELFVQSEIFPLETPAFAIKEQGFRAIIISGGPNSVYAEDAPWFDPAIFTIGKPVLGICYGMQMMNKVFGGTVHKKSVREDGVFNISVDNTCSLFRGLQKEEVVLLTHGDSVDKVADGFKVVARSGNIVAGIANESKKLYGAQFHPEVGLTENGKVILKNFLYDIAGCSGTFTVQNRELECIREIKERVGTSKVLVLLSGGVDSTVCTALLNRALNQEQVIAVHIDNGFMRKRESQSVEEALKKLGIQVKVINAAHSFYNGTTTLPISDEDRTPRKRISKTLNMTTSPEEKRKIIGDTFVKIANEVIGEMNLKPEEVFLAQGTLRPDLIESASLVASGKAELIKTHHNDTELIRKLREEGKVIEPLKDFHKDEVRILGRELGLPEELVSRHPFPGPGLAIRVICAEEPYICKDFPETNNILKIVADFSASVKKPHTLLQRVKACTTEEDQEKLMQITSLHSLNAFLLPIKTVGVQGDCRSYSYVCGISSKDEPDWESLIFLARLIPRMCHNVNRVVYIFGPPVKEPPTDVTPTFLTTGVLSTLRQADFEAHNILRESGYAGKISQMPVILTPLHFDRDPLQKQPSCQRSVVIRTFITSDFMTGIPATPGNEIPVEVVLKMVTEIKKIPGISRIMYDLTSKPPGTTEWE

Usually IC50 stands for the midpoint of a concentration-inhibition curve. Regarding `Nc1ncnc2c1c(I)cn2[C@@H]1O[C@H](CO)[C@@H](O)[C@H]1O` [IODOTUBERCIDIN], the IC50 in the assay on Plasmodium falciparum [1] worked out at 2000 nM.

Compound `C=C1O[C@@](CO)(n2cnc3c(N)ncnc32)[C@H](O)[C@@H]1O` [DECOYININE] gave an IC50 in assay [2] of 46500 nM.

By Ki is commonly meant the equilibrium dissociation constant of an inhibitor or competing ligand from its target. `CSC[C@H]1N[C@@H](c2c[nH]c3c(=O)[nH]cnc23)[C@H](O)[C@@H]1O`: in [3], the Ki stood at 303 nM. This compound also had an IC50 in the assay on Plasmodium falciparum [4] of 50 nM.

`Nc1nc2c([C@@H]3N[C@H](COP(=O)(O)O)[C@@H](O)[C@H]3O)c[nH]c2c(=O)[nH]1`: the figures for the Ki in assay [5] and in assay [6] were 14 nM and 56 nM, respectively.

As for `O=c1[nH]cnc2c(CN3C[C@@H](CO)[C@H](O)C3)c[nH]c12`, the inhibition constant Ki in assay [7] was determined as 1.5 nM; in [8], 0.68 nM; in assay [9], 1700 nM; in [10], 80 nM.

A word on the inhibition: it is the drop in the measured response relative to a control, in per cent. Regarding `Nc1ncnc2c1ncn2[C@]1(CO)O[C@H](CO)[C@@H](O)[C@H]1O` [PSICOFURANINE], the inhibition in assay [11] was determined as 25%. For the same compound, the IC50 with Plasmodium falciparum [12] stood at 300000 nM.
